From PMC6683251, “Flavanol Bioavailability in Two Cocoa Products with Different Phenolic Content. A Comparative Study in Humans” (Nutrients, 2019)
“And” between values parts separate entries of the source, which are not always exact repeats. Equal values may be shown once.

experiment: Plasma nutrikinetics of flavanol metabolites after a single serving of soluble cocoa product (HPLC-ESI-QToF-MS); type: in vivo, human; details: both sexes, oral, 19.8 mg; human plasma 0-8 h, after CC (19.80 mg flavanols), mean ± SD, n = 13; read-out: AUC
Protocol: The study was carried out in thirteen healthy subjects (3 men and 10 women); the mens’ average age and body mass index were 26.67 ± 3.21 year and 22.47 ± 2.97 kg/m^2, respectively, and womens’ were 32.60 ± 9.85 year and 23.36 ± 3.73 kg/m^2, respectively. They were non-smoker, non-vegetarian, non-pregnant women, who were not taking any medication or nutritional supplements, and were not suffering from any chronic pathology or gastrointestinal disorder. The sample size was estimated attending to similar previous bioavailability studies. The volunteers gave their informed consent prior to participation.
The present randomized, single-blind study was carried out at the Human Nutrition Unit (HNU) of the Institute of Food Science, Technology and Nutrition (ICTAN). Volunteers attended the HNU on two days, separated by two weeks. Three days previous to each visit, participants were instructed not to consume cocoa products (chocolate, soluble cocoa, etc.), juices, tea, wine, grape must, oranges, tangerines, apples, grapes, strawberries or other berries, beets, onions, soybeans and soy derivatives. In addition, volunteers were asked to complete a 24 h food intake recall the day before they attended the HNU in order to monitor any possible food restriction incompliance.
On each intervention day, volunteers arrived at the HNU after an overnight fast. Prior to the intake of the soluble cocoa product, a nurse inserted a cannula in the cubital vein of the non-prevailing arm of the volunteers and blood samples were collected into EDTA-coated tubes at baseline (t = 0) and 0.5, 1, 2, 3, 4, 6, and 8 h after consuming the corresponding cocoa product. The soluble cocoa products, either 15 g of CC or 25 g CC-PP, were dissolved in 200 mL of semi-skimmed milk following manufacturer’s preparation instructions. Plasma was separated by centrifugation (10 min, 3000 rpm, 4 °C) and stored at −80 °C until further analysis. Urine samples were collected at different time intervals (t = −2–0, 0–4, 4–8, 8–12, and 12–24 h) in urine collection flasks that contained 0.5 g of ascorbic acid as preservative and were aliquoted and frozen at −20 °C until analysis. A polyphenol-free breakfast, lunch and afternoon snack were provided 2 h, 4 h, and 8 h after consumption of cocoa products, and water and isotonic beverages were available ad libitum.
A liquid–liquid extraction and protein precipitation with acetonitrile was used to isolate metabolites from plasma. A 1 mL defrosted plasma sample was mixed with 50 μL of ascorbic acid (0.2 g/mL). After vortexing the aqueous mixture, it was added drop wise to 750 μL of cold acetonitrile and vortexed for 2 min before centrifuging at 12,000 rpm for 10 min at 4 °C. The supernatant was separated, and the pellet was re-extracted twice more following the same procedure. Supernatants were combined and reduced to dryness under a stream of nitrogen at 30 °C. The dried samples were resuspended in 150 μL of aqueous formic acid (0.1%) containing 10% acetonitrile acidified with 0.1% formic acid and centrifuged at 4 °C for 20 min at 14,000 rpm. The final supernatant was collected, filtered (0.45 μm pore-size, cellulose-acetate membrane filters, Albet, Dassel (Germany)) and 30 μL were analyzed by high-performance liquid chromatography coupled to electrospray ionisation and quadrupole time-of-flight mass spectrometry (HPLC-ESI-QToF-MS).
Analyses were performed on an Agilent 1200 series LC system coupled to an Agilent 6530A Accurate-Mass Quadrupole Time-Of-Flight (Q-ToF) with ESI-Jet Stream Technology (Agilent Technologies). Compounds were separated on a reverse-phase Ascentis Express C18 (15 cm × 3 mm, […]) column (Sigma-Aldrich Química, Madrid) preceded by a Supelco 55215-U guard column at 30 °C. […]

| Structure (SMILES) | AUC [µM·h] |
| --- | --- |
| O=C1CCC(Cc2ccc(O)c(OC3OC(C(=O)O)C(O)C(O)C3O)c2)O1 (stereo not drawn) [HPVL-3′-glucuronide, 5-(4′-Hydroxyphenyl)-γ-valerolactone-3′-glucuronide] | 0.106 ± 0.021 |

same assay, conditions: both sexes, oral, 19.8 mg; human plasma, after CC (19.80 mg flavanols), mean ± SD, n = 13; read-out: Tmax

| Structure (SMILES) | Tmax [h] |
| --- | --- |
| O=C1CCC(Cc2ccc(O)c(OC3OC(C(=O)O)C(O)C(O)C3O)c2)O1 (stereo not drawn) [HPVL-3′-glucuronide, 5-(4′-Hydroxyphenyl)-γ-valerolactone-3′-glucuronide] | 5.6 ± 0.8 |
| O=C1CCC(Cc2cccc(OS(=O)(=O)O)c2)O1 (stereo not drawn) [PVL-3′-sulfate, 5-Phenyl-γ-valerolactone-3′-sulfate] | 4 to 6 |

same assay, conditions: both sexes, oral; human plasma 0-8 h, after CC-PP (68.25 mg flavanols), mean ± SD, n = 13; read-out: AUC

| Structure (SMILES) | AUC [µM·h] |
| --- | --- |
| O=C1CCC(Cc2ccc(O)c(OC3OC(C(=O)O)C(O)C(O)C3O)c2)O1 (stereo not drawn) [HPVL-3′-glucuronide, 5-(4′-Hydroxyphenyl)-γ-valerolactone-3′-glucuronide] | 1.43 ± 0.727 |
| O=C1CCC(Cc2cccc(OS(=O)(=O)O)c2)O1 (stereo not drawn) [PVL-3′-sulfate, 5-Phenyl-γ-valerolactone-3′-sulfate] | 0.161 ± 0.105 |

same assay, conditions: both sexes, oral; human plasma, after CC (15 g in 200 mL semi-skimmed milk, 19.80 mg flavanols), mean ± SD, n = 13; read-out: Cmax

| Structure (SMILES) | Cmax [nM] |
| --- | --- |
| O=C1CCC(Cc2ccc(O)c(OC3OC(C(=O)O)C(O)C(O)C3O)c2)O1 (stereo not drawn) [HPVL-3′-glucuronide, 5-(4′-Hydroxyphenyl)-γ-valerolactone-3′-glucuronide] | 31 ± 4 |

same assay, conditions: both sexes, oral; human plasma, after CC-PP (68.25 mg flavanols), mean ± SD, n = 13; read-out: Tmax

| Structure (SMILES) | Tmax [h] |
| --- | --- |
| O=C1CCC(Cc2ccc(O)c(OC3OC(C(=O)O)C(O)C(O)C3O)c2)O1 (stereo not drawn) [HPVL-3′-glucuronide, 5-(4′-Hydroxyphenyl)-γ-valerolactone-3′-glucuronide] | 5 ± 1.2 |
| O=C1CCC(Cc2cccc(OS(=O)(=O)O)c2)O1 (stereo not drawn) [PVL-3′-sulfate, 5-Phenyl-γ-valerolactone-3′-sulfate] | 5.2 ± 2.2 |

same assay, conditions: both sexes, oral; human plasma, after CC-PP (25 g in 200 mL semi-skimmed milk, 68.25 mg flavanols), mean ± SD, n = 13; read-out: Cmax

| Structure (SMILES) | Cmax [nM] |
| --- | --- |
| O=C1CCC(Cc2ccc(O)c(OC3OC(C(=O)O)C(O)C(O)C3O)c2)O1 (stereo not drawn) [HPVL-3′-glucuronide, 5-(4′-Hydroxyphenyl)-γ-valerolactone-3′-glucuronide] | 357 ± 200 |
| O=C1CCC(Cc2cccc(OS(=O)(=O)O)c2)O1 (stereo not drawn) [PVL-3′-sulfate, 5-Phenyl-γ-valerolactone-3′-sulfate] | 39 ± 14 |

same assay, conditions: human plasma, after CC (15 g in 200 mL semi-skimmed milk, 19.80 mg flavanols), mean ± SD, n = 13

| Structure (SMILES) | Cmax |
| --- | --- |
| O=C1CCC(Cc2cccc(OS(=O)(=O)O)c2)O1 (stereo not drawn) [PVL-3′-sulfate, 5-Phenyl-γ-valerolactone-3′-sulfate] | traces level |

same assay, conditions: plasma and urine, CC and CC-PP

| Structure (SMILES) | Detection of un-metabolized compound in the collected biological fluids |
| --- | --- |
| Oc1cc(O)c2c(c1)O[C@H](c1ccc(O)c(O)c1)[C@H](O)[C@H]2c1c(O)cc(O)c2c1O[C@H](c1ccc(O)c(O)c1)[C@H](O)C2 [PB2 dimer, procyanidin B2] | Neither un-metabolized epicatechin and catechin nor procyanidins B1 and B2 were detected |
| Oc1cc(O)c2c(c1)O[C@H](c1ccc(O)c(O)c1)[C@H](O)C2 [epicatechin] | Neither un-metabolized epicatechin and catechin nor procyanidins B1 and B2 were detected |

experiment: Urinary excretion of flavanol metabolites (0-24 h) after a single serving of soluble cocoa product (HPLC-ESI-QToF-MS); type: in vivo, human; details: CC intervention, basal urine (−2–0 h, before intake), mean ± SD, n = 13
Outline: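 Fasted women drank 15 g CC or 25 g CC-PP soluble cocoa in 200 mL semi-skimmed milk, in a randomized, single-blind design with visits two weeks apart and a 3-day low-polyphenol diet beforehand. Excreted amounts were normalized to urine volume per interval, quantified against standards or precursor calibration curves.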

| Structure (SMILES) | Excreted in urine, Basal |
| --- | --- |
| O=C1CCC(Cc2ccc(O)c(OC3OC(C(=O)O)C(O)C(O)C3O)c2)O1 (stereo not drawn) [HPVL-3′-glucuronide, 5-(4′-Hydroxyphenyl)-γ-valerolactone-3′-glucuronide] | <L.Q. |
| O=C1CCC(Cc2cccc(OS(=O)(=O)O)c2)O1 (stereo not drawn) [PVL-3′-sulfate, 5-Phenyl-γ-valerolactone-3′-sulfate] | <L.Q. |

same assay, conditions: CC-PP intervention, basal urine (−2–0 h, before intake), mean ± SD, n = 13

| Structure (SMILES) | Excreted in urine, Basal |
| --- | --- |
| O=C1CCC(Cc2ccc(O)c(OC3OC(C(=O)O)C(O)C(O)C3O)c2)O1 (stereo not drawn) [HPVL-3′-glucuronide, 5-(4′-Hydroxyphenyl)-γ-valerolactone-3′-glucuronide] | <L.Q. |
| O=C1CCC(Cc2cccc(OS(=O)(=O)O)c2)O1 (stereo not drawn) [PVL-3′-sulfate, 5-Phenyl-γ-valerolactone-3′-sulfate] | <L.Q. |

same assay, conditions: after CC (19.80 mg flavanols), 24 h urine, mean ± SD, n = 13

| Structure (SMILES) | Excreted in urine, Total [µmol] |
| --- | --- |
| O=C1CCC(Cc2ccc(O)c(OC3OC(C(=O)O)C(O)C(O)C3O)c2)O1 (stereo not drawn) [HPVL-3′-glucuronide, 5-(4′-Hydroxyphenyl)-γ-valerolactone-3′-glucuronide] | 0.600 ± 0.232 |
| O=C1CCC(Cc2cccc(OS(=O)(=O)O)c2)O1 (stereo not drawn) [PVL-3′-sulfate, 5-Phenyl-γ-valerolactone-3′-sulfate] | 1.691 ± 0.802 |

same assay, conditions: after CC (19.80 mg flavanols), mean ± SD, n = 13

| Structure (SMILES) | Excreted in urine, 0–4 h | Excreted in urine, 4–8 h [µmol] | Excreted in urine, 8–12 h [µmol] | Excreted in urine, 12–24 h |
| --- | --- | --- | --- | --- |
| O=C1CCC(Cc2ccc(O)c(OC3OC(C(=O)O)C(O)C(O)C3O)c2)O1 (stereo not drawn) [HPVL-3′-glucuronide, 5-(4′-Hydroxyphenyl)-γ-valerolactone-3′-glucuronide] | <L.Q. | 0.497 ± 0.204 | 0.103 ± 0.028 | <L.Q. |
| O=C1CCC(Cc2cccc(OS(=O)(=O)O)c2)O1 (stereo not drawn) [PVL-3′-sulfate, 5-Phenyl-γ-valerolactone-3′-sulfate] | <L.Q. | 0.860 ± 0.385 | 0.456 ± 0.284 | 0.375 ± 0.133 µmol |

same assay, conditions: after CC-PP (68.25 mg flavanols), 24 h urine, mean ± SD, n = 13

| Structure (SMILES) | Excreted in urine, Total |
| --- | --- |
| O=C1CCC(Cc2ccc(O)c(OC3OC(C(=O)O)C(O)C(O)C3O)c2)O1 (stereo not drawn) [HPVL-3′-glucuronide, 5-(4′-Hydroxyphenyl)-γ-valerolactone-3′-glucuronide] | 2.358 ± 0.766 µmol |
| O=C1CCC(Cc2cccc(OS(=O)(=O)O)c2)O1 (stereo not drawn) [PVL-3′-sulfate, 5-Phenyl-γ-valerolactone-3′-sulfate] | 7.8 µmol and 7.752 ± 2.868 µmol |

same assay, conditions: after CC-PP (68.25 mg flavanols), mean ± SD, n = 13

| Structure (SMILES) | Excreted in urine, 0–4 h | Excreted in urine, 4–8 h [µmol] | Excreted in urine, 8–12 h [µmol] | Excreted in urine, 12–24 h [µmol] |
| --- | --- | --- | --- | --- |
| O=C1CCC(Cc2ccc(O)c(OC3OC(C(=O)O)C(O)C(O)C3O)c2)O1 (stereo not drawn) [HPVL-3′-glucuronide, 5-(4′-Hydroxyphenyl)-γ-valerolactone-3′-glucuronide] | <L.Q. | 1.802 ± 0.567 | 0.274 ± 0.060 | 0.282 ± 0.130 |
| O=C1CCC(Cc2cccc(OS(=O)(=O)O)c2)O1 (stereo not drawn) [PVL-3′-sulfate, 5-Phenyl-γ-valerolactone-3′-sulfate] | 0.651 ± 0.389 µmol | 4.188 ± 1.535 | 1.223 ± 0.373 | 1.690 ± 0.572 |

same assay, conditions: any of the interventions (CC, CC-PP)

| Structure (SMILES) | Detection of un-metabolized compound in urine |
| --- | --- |
| Oc1cc(O)c2c(c1)O[C@H](c1ccc(O)c(O)c1)[C@H](O)[C@H]2c1c(O)cc(O)c2c1O[C@H](c1ccc(O)c(O)c1)[C@H](O)C2 [PB2 dimer, procyanidin B2] | Neither epicatechin nor PB2 dimer was detected in urine |
| Oc1cc(O)c2c(c1)O[C@H](c1ccc(O)c(O)c1)[C@H](O)C2 [epicatechin] | Neither epicatechin nor PB2 dimer was detected in urine |

experiment: not given; details: after ingestion of chocolate providing 220 mg of flavanols; cited from earlier work

| Structure (SMILES) | Excretion [%] |
| --- | --- |
| Oc1cc(O)c2c(c1)O[C@H](c1ccc(O)c(O)c1)[C@H](O)C2 [epicatechin] | 29.8 |

same assay, conditions: after ingestion of cocoa providing 220 mg of flavanols; cited from earlier work

| Structure (SMILES) | Excretion [%] |
| --- | --- |
| Oc1cc(O)c2c(c1)O[C@H](c1ccc(O)c(O)c1)[C@H](O)C2 [epicatechin] | 25.3 |

experiment: not given; parameters: method as in PMID 23864538; details: based on recovery in the perfusion fluid, eight volunteers; cited from earlier work

| Structure (SMILES) | Jejunal absorption, average |
| --- | --- |
| Oc1cc(O)c2c(c1)O[C@H](c1ccc(O)c(O)c1)[C@H](O)C2 [epicatechin] | ~ 46% |
